Test results taken from EP4733299A1, “SULFUR-CONTAINING FUSED RING COMPOUND, PHARMACEUTICAL COMPOSITION CONTAINING SAME, AND PREPARATION METHOD THEREFOR AND USE THEREOF” (Shenzhen Braegen Pharmaceutical Co., Ltd., priority 2023, dated 2024).

Target: T1, a-Syn aggregates (Homo sapiens, UniProt P37840, A53T)
T1 construct: tissue The Jackson Laboratory 017682; host or cells: brain sections of rotenone-treated transgenic mice
Test: Binding specificity on brain slices of rotenone-treated SNCA transgenic mice
Details: for capture of a-Syn aggregates: brain slices, rotenone-treated SNCA Tg mice, Fig. 2
Experimental: To further explore whether the positive compounds selectively bind to Lewy bodies, brain slices from mice were used to test the binding specificity assays.
Staining with a-Synuclein protein coding gene (SNCA) transgenic mice (the Jackson Laboratory; stock numbers: 017682) were treated with rotenone (Oral gavage of rotenone under the following protocol: Mice were treated with 0.1 mL/25 g of vehicle containing 1% methylcellulose (Sigma, Catalog No.: M0512) and 1.25% chloroform (Sigma, Catalog No.: 2432) or a solution containing 0.625 mg/mL of rotenone (ULTRA Scientific, Catalog No.: PST-890) with 1% methylcellulose and 1.25% chloroform. We prepared rotenone solution by dissolving rotenone in chloroform and then diluting into 1% methylcellulose solution while mixing vigorously. Rotenone or vehicle control was orally administered with a 1.2 x 60 mm gavage (Unimed, Switzerland) once a day for 5 days/week, consecutively for 3 months.), which contains abundant LB-like inclusions. Furthermore, brain slices from NFT abundant Tau P301S mice and Aβ-enriched 5 x FAD mice were also used separately.
The brain slices were fixed and incubated for 12 h at 4 °C with primary antibodies followed by incubation with Alexa Fluor 568-, Alexa Fluor 488-, or Alexa Fluor 647-conjugated secondary antibodies (Invitrogen) for 3 h at room temperature. Then stained with ThS (Sigma, Catalog No.: T1892) or candidate compounds at room temperature, 4',6-diamidino-2-phenylindole (DAPI, 1 µg/ml) (Sigma-Aldrich) was used for the nuclear staining. The slides were imaged with Olympus FluoView FV1000 confocal laser scanning microscope using Olympus FluoView software to acquire data.

Row | capture of a-Syn aggregates | Compound | co-localization with aggregates in the brain sections (positive control, mouse brain sections)
1 | sensitively captured a-Syn aggregates | COc1cc(/C=C/c2nc3cc(C)c(N(C)CCOCCF)cc3s2)ccc1O [Compound A, (E)-4-(2-(6-((2-(2-fluoroethoxy)ethyl)(methyl)amino)-5-methylbenzo[d]thiazol-2-yl)vinyl)-2-methoxyphenol] | –
2 | sensitively captured a-Syn aggregates | COc1cc(/C=C/c2nc3cc(C)c(N(C)CCOCCF)cc3s2)cc(Br)c1O [Compound S, (E)-2-bromo-4-(2-(6-((2-(2-fluoroethoxy)ethyl)(methyl)amino)-5-methylbenzo[d]thiazol-2-yl)vinyl)-6-methoxyphenol] | –
3 | – | thioflavin-S [ThS, reference compound] | co-localized with all of these aggregates
